The compounds below were run against T1, human Nav1.7 channels (Homo sapiens, UniProt Q15858) (assay: FRET assay, human Nav1.7 (EFS on FDSS)). Details: CHO cells expressing human Nav1.7, read-out: IC50 against Nav1.7.
T1 construct: expressed in transfected cells; host or cells: CHO
Assay type: cell-based
How it was run: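 CHO cells stably expressing the channel, loaded with CC2-DMPE (10 µM) then DiSBAC2(3) (15 µM) plus VABSC-1, in HEPES-buffered saline pH 7.4 at room temperature. Electrical field stimulation on FDSS; FRET ratio at 440 nm fitted for IC50.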

T1 sequence (Q15858 whole entry): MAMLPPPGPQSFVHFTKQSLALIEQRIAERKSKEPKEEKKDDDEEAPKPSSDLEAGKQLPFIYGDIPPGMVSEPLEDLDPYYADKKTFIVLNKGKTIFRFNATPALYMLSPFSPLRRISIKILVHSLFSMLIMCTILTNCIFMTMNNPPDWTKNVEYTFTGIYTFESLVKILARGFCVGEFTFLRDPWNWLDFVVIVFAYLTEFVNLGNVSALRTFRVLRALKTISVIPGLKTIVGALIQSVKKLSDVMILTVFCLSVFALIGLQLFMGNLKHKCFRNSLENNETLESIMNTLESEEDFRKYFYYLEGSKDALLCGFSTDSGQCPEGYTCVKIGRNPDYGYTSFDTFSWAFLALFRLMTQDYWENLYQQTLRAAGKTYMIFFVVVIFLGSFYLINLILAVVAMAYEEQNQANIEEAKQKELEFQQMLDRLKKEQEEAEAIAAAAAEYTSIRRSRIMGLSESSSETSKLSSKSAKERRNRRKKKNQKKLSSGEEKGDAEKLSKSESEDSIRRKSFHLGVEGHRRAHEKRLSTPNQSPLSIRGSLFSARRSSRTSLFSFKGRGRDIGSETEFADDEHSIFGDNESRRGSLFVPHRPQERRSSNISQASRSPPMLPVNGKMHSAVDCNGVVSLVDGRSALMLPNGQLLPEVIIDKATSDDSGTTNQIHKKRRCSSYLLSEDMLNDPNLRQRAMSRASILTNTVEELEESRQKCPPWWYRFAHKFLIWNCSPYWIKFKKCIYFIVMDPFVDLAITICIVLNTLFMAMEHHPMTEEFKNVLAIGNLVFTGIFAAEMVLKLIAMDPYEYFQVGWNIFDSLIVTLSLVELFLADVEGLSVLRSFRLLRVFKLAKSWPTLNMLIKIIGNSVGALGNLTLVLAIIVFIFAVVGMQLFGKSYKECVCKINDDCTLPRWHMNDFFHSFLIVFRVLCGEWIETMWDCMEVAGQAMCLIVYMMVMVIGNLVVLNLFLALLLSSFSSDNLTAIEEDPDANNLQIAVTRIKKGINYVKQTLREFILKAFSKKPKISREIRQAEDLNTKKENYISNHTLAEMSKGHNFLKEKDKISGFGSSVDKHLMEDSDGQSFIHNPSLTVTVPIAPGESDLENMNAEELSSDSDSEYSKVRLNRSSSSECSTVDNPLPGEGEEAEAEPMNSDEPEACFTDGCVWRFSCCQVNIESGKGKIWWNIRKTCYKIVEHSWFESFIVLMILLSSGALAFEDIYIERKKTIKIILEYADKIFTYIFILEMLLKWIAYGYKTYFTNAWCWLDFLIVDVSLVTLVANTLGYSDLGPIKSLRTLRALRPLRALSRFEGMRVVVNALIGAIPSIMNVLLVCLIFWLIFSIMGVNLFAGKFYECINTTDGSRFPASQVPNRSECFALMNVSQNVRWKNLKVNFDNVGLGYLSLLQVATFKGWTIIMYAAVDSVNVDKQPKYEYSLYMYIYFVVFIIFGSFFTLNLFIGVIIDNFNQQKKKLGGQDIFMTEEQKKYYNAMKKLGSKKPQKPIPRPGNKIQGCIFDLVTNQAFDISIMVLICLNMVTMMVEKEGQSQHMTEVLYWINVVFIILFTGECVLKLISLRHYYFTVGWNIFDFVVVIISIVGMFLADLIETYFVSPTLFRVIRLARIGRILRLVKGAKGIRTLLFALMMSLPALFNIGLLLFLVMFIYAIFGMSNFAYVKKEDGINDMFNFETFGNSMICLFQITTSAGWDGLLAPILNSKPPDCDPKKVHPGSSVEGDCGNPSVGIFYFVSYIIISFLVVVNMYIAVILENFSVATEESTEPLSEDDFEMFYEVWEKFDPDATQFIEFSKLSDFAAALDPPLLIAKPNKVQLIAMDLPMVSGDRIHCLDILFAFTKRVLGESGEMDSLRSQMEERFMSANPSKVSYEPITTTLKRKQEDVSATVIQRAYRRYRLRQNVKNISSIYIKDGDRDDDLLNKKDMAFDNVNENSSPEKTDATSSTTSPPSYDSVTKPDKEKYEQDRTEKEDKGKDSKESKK

IC50, < 1000 nM:
CCC(=O)Nc1cc(C(=O)NC(C)c2ccc(OCCC(F)(F)F)nc2)ccn1 (single isomer, unassigned) [Example 115, 2-propionamido-N-(1-(6-(3,3,3-trifluoropropoxy)pyridin-3-yl)ethyl)isonicotinamide]
COc1cc(C(C)NC(=O)c2cc(C)nc(NC(=O)C3CC3)n2)cnc1OCC(F)(F)F (single isomer, unassigned) [Example 194, 2-(cyclopropanecarboxamido)-N-(1-(5-methoxy-6-(2,2,2-trifluoroethoxy)pyridin-3-yl)ethyl)-6-methylpyrimidine-4-carboxamide]
Cc1cc(C(=O)NCc2cccc(C(F)(F)F)c2C)cc(NC(=O)C(C)C)n1 [Example 879, 2-isobutyramido-6-methyl-N-(2-methyl-3-(trifluoromethyl)benzyl)isonicotinamide]
CCCC(=O)Nc1cc(C(=O)NC(C)c2ccc(OCC(F)(F)F)nc2)ccn1 (single isomer, unassigned) [Example 40, 2-butyramido-N-(1-(6-(2,2,2-trifluoroethoxy)pyridin-3-yl)ethyl)isonicotinamide]
O=C(NCc1ccc(OCC(F)(F)F)nc1)c1ccnc(NC(=O)C2CC2)n1 [Example 397, 2-(cyclopropanecarboxamido)-N-((6-(2,2,2-trifluoroethoxy)pyridin-3-yl)methyl)pyrimidine-4-carboxamide]
O=C(NCc1ccc(OCC(F)(F)C(F)F)nc1)c1ccnc(NC(=O)C2CC2)c1 [Example 635, 2-(cyclopropanecarboxamido)-N-((6-(2,2,3,3-tetrafluoropropoxy)pyridin-3-yl)methyl)isonicotinamide]
Cc1cc(C(=O)NC(C)c2ccc(OCC(F)(F)C(F)F)nc2)cc(NC(=O)C(C)C)n1 (single isomer, unassigned) [Example 657, 2-isobutyramido-6-methyl-N-(1-(6-(2,2,3,3-tetrafluoropropoxy)pyridin-3-yl)ethyl)isonicotinamide]
Cc1cc(C(=O)NCc2cnc(OCC(F)(F)F)c(Br)c2)cc(NC(=O)C2CC2)n1 [Example 900, N-((5-bromo-6-(2,2,2-trifluoroethoxy)pyridin-3-yl)methyl)-2-(cyclopropanecarboxamido)-6-methylisonicotinamide]
CC(=O)Nc1cc(C(=O)NCc2cc(F)c(OCC(F)(F)F)nc2C)cc(C)n1 [Example 312, 2-acetamido-N-((5-fluoro-2-methyl-6-(2,2,2-trifluoroethoxy)pyridin-3-yl)methyl)-6-methylisonicotinamide]
Cc1cc(CNC(=O)c2ccnc(NC(=O)C3CC3)c2)ccc1OCC(F)F [Example 990, 2-(cyclopropanecarboxamido)-N-(4-(2,2-difluoroethoxy)-3-methylbenzyl)isonicotinamide]
O=C(NCc1cccc(OCC(F)(F)F)n1)c1cccc2[nH]c(=O)[nH]c12 [Example 57, 2-oxo-N-((6-(2,2,2-trifluoroethoxy)pyridin-2-yl)methyl)-2,3-dihydro-1H-benzo[d]imidazole-4-carboxamide]
COc1nc(OCC(F)F)ccc1CNC(=O)c1ccnc(NC(=O)C(C)C)c1 [Example 1154, N-((6-(2,2-difluoroethoxy)-2-methoxypyridin-3-yl)methyl)-2-isobutyramidoisonicotinamide]
CC(=O)Nc1cc(C(=O)NC(C)c2ccc(OCC(F)(F)F)cc2Cl)cc(C)n1 (single isomer, unassigned) [Example 800, 2-acetamido-N-(1-(2-chloro-4-(2,2,2-trifluoroethoxy)phenyl)ethyl)-6-methylisonicotinamide]
CC(C)C(=O)Nc1nccc(C(=O)NC(C)c2cnc(OCC(F)(F)F)c(Cl)c2)n1 (single isomer, unassigned) [Example 212, N-(1-(5-chloro-6-(2,2,2-trifluoroethoxy)pyridin-3-yl)ethyl)-2-isobutyramidopyrimidine-4-carboxamide]
CC(=O)Nc1cc(C(=O)NC(C)c2ccc(OCC(C)(F)F)nc2)cc(C)n1 (single isomer, unassigned) [Example 783, 2-acetamido-N-(1-(6-(2,2-difluoropropoxy)pyridin-3-yl)ethyl)-6-methylisonicotinamide]
CCC(=O)Nc1cc(C(=O)NCc2ccc(OCC(F)F)c(Cl)c2)ccn1 [Example 998, N-(3-chloro-4-(2,2-difluoroethoxy)benzyl)-2-propionamidoisonicotinamide]
Cc1cc(C(=O)NCc2cccc(C(F)(F)F)c2Cl)cc(NC(=O)C(C)C)n1 [Example 878, N-(2-chloro-3-(trifluoromethyl)benzyl)-2-isobutyramido-6-methylisonicotinamide]
CC(=O)Nc1cc(C(=O)NC(C)c2cc(C)nc(OCC(F)(F)F)c2)ccn1 (single isomer, unassigned) [Example 73, 2-acetamido-N-(1-(2-methyl-6-(2,2,2-trifluoroethoxy)pyridin-4-yl)ethyl)isonicotinamide]
Cc1cc(C(C)NC(=O)c2ccnc(NC(=O)C(C)C)c2)cnc1OCC(F)(F)F (single isomer, unassigned) [Example 378, 2-isobutyramido-N-(1-(5-methyl-6-(2,2,2-trifluoroethoxy)pyridin-3-yl)ethyl)isonicotinamide]
CC(=O)Nc1cc(C(=O)NC(C)c2cccc(OC(F)(F)F)c2)cc(C)n1 (single isomer, unassigned) [Example 420, 2-acetamido-6-methyl-N-(1-(3-(trifluoromethoxy)phenyl)ethyl)isonicotinamide]
Cc1cc(C(=O)NCc2cnc(OCC(F)(F)F)cc2C)nc(NC(=O)C(C)C)n1 [Example 353, 2-isobutyramido-6-methyl-N-((4-methyl-6-(2,2,2-trifluoroethoxy)pyridin-3-yl)methyl)pyrimidine-4-carboxamide]
CC(=O)Nc1cc(C(=O)NC(C)c2ccc(OCC(F)F)c(Cl)c2)cc(C)n1 (single isomer, unassigned) [Example 1100, 2-acetamido-N-(1-(3-chloro-4-(2,2-difluoroethoxy)phenyl)ethyl)-6-methylisonicotinamide]
CCC(=O)Nc1cc(C(=O)NCc2ccc(OCC(F)(F)F)c(OC)c2)ccn1 [Example 882, N-(3-methoxy-4-(2,2,2-trifluoroethoxy)benzyl)-2-propionamidoisonicotinamide]
CC(=O)Nc1cc(C(=O)N(C)Cc2cnc(OCC(F)(F)F)c(C)c2)cc(C)n1 [Example 394, 2-acetamido-N,6-dimethyl-N-((5-methyl-6-(2,2,2-trifluoroethoxy)pyridin-3-yl)methyl)isonicotinamide]
CCC(=O)Nc1cc(C(=O)NC(C)c2cnc(OCC(F)(F)F)c(OC)c2)ccn1 (single isomer, unassigned) [Example 142]
CC(=O)Nc1cc(C(=O)NCc2ccc(O[C@H](C)C(F)(F)F)nc2)cc(C)n1 (single isomer, unassigned) [Example 320]
CC(NC(=O)c1ccnc(NC(=O)C2CC2)c1)c1cnc(OCC(F)(F)F)c(Cl)c1 (single isomer, unassigned) [Example 79, N-(1-(5-chloro-6-(2,2,2-trifluoroethoxy)pyridin-3-yl)ethyl)-2-(cyclopropanecarboxamido)isonicotinamide]
Cc1cc(C(=O)NC(C)c2ccc(OCC(F)(F)F)cc2Cl)nc(NC(=O)C2CC2)n1 (single isomer, unassigned) [Example 803, N-(1-(2-chloro-4-(2,2,2-trifluoroethoxy)phenyl)ethyl)-2-(cyclopropanecarboxamido)-6-methylpyrimidine-4-carboxamide]
CCCC(=O)Nc1cc(C(=O)NC(C)c2cnc(OCC(F)(F)F)c(OC)c2)ccn1 (single isomer, unassigned) [Example 331, 2-butyramido-N-(1-(5-methoxy-6-(2,2,2-trifluoroethoxy)pyridin-3-yl)ethyl)isonicotinamide]
Cc1cc(C(=O)NCc2ccc(OCC(F)(F)F)nc2)cc(NC(=O)C2CC2)n1 [Example 822, 2-(cyclopropanecarboxamido)-6-methyl-N-((6-(2,2,2-trifluoroethoxy)pyridin-3-yl)methyl)isonicotinamide]
CCOc1nc(OCC(F)(F)F)ccc1CNC(=O)c1cc(C)nc(NC(C)=O)n1 [Example 338, 2-acetamido-N-((2-ethoxy-6-(2,2,2-trifluoroethoxy)pyridin-3-yl)methyl)-6-methylpyrimidine-4-carboxamide]
CC(=O)Nc1cc(C(=O)NCc2ccc(OCC(F)(F)F)nc2N2CCOCC2)cc(C)n1 [Example 283, 2-acetamido-6-methyl-N-((2-morpholino-6-(2,2,2-trifluoroethoxy)pyridin-3-yl)methyl)isonicotinamide]
CC(C)C(=O)Nc1cc(C(=O)NC(C)c2cccc(OC(F)(F)F)c2)ccn1 (single isomer, unassigned) [Example 418, 2-isobutyramido-N-(1-(3-(trifluoromethoxy)phenyl)ethyl)isonicotinamide]
Cc1cc(C(=O)NC(C)c2ccc(OCC(F)F)c(C)c2)cc(NC(=O)C(C)C)n1 (single isomer, unassigned) [Example 865, N-(1-(4-(2,2-difluoroethoxy)-3-methyphenyl)ethyl)-2-isobutyramido-6-methylisonicotinamide]

Reference: patent US9302991B2, “Arylamide derivatives as TTX-S blockers” (RaQualia Pharma Inc., priority 2010, dated 2016)
